target: T1, EGFR L858R-T790M (Homo sapiens, UniProt P00533, L858R/T790M); assay: EGFR degradation, Total EGFR (L858R-specific) HTRF, NCI-H1975; format: cell-based; conditions: Table 9B; NCI-H1975 cells, 6 hours, Total EGFR HTRF; read-out: H1975 EGFR DC50
T1 construct: NCI-H1975 (harboring EGFR heterozygous L858R-T790M mutations); host or cells: NCI-H1975
Summary of the method: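 HTRF read-outs: pY1068 phospho-EGFR for IC50; total EGFR (pan-EGFR in A431, L858R-specific in mutant lines) for DC50. Compounds were titrated 11 points, half-log, from 10 μM in duplicate onto cells in 10% FBS RPMI, incubated 6 h at 37°C.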

T1 sequence (P00533 25-1210 T790M/L858R): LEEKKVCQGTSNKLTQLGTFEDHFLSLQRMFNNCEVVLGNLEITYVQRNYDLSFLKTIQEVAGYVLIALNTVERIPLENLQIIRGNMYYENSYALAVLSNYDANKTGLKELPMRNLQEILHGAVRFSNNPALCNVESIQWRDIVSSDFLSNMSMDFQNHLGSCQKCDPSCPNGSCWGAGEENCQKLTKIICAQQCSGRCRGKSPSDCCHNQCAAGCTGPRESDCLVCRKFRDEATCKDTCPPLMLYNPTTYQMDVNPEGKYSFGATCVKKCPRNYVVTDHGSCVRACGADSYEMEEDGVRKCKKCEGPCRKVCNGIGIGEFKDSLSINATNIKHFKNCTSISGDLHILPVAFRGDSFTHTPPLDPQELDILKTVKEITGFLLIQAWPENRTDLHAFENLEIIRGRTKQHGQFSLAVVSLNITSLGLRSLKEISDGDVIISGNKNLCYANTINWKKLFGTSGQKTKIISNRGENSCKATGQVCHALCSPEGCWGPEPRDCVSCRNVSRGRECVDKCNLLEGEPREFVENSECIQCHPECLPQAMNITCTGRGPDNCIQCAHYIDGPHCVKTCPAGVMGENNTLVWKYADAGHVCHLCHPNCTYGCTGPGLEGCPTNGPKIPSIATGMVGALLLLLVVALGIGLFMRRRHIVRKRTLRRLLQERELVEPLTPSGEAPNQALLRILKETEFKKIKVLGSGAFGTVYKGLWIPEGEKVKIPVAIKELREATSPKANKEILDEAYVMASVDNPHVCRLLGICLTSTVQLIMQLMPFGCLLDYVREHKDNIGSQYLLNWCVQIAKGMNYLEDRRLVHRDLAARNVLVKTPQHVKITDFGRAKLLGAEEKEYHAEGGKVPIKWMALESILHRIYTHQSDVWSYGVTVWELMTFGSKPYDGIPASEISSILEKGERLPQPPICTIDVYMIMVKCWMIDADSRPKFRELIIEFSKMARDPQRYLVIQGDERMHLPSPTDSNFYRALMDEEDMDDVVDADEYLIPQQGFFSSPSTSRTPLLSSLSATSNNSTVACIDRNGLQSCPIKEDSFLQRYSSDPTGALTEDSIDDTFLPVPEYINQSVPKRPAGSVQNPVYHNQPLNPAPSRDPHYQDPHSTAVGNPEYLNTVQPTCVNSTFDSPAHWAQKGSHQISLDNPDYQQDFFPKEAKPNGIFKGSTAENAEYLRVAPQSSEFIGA

| SMILES | DC50 [nM] |
| --- | --- |
| Cn1nc(N2CCC(=O)NC2=O)c2ccc(C3CCN(C(=O)CC4CC5(C4)CN(c4ccc(-c6cc(F)c7c(c6)C(=O)N(C(C(=O)Nc6nccs6)c6ncn8c6CCC8)C7)cc4)C5)CC3(F)F)cc21 (stereo not drawn) [Compound 102, 2-(6,7-dihydro-5H-pyrrolo[1,2-c]imidazol-1-yl)-2-(6-(4-(6-(2-(4-(3-(2,4-dioxotetrahydropyrimidin-1(2H)-yl)-1-methyl-1H-indazol-6-yl)-3,3-difluoropiperidin-1-yl)-2-oxoethyl)-2-azaspiro[3.3]heptan-2-yl)phenyl)-4-fluoro-1-oxoisoindolin-2-yl)-N-(thiazol-2-yl)acetamide] | < 50 |
| Cn1nc(N2CCC(=O)NC2=O)c2ccc(C3CCN(CC(=O)N4CCC(n5cc(-c6cc(F)c7c(c6)C(=O)N(C(C(=O)Nc6nccs6)c6ncn8c6CCC8)C7)cn5)CC4)CC3(F)F)cc21 (stereo not drawn) [Compound 105, 2-(6,7-dihydro-5H-pyrrolo[1,2-c]imidazol-1-yl)-2-(6-(1-(1-(2-(4-(3-(2,4-dioxotetrahydropyrimidin-1(2H)-yl)-1-methyl-1H-indazol-6-yl)-3,3-difluoropiperidin-1-yl)acetyl)piperidin-4-yl)-1H-pyrazol-4-yl)-4-fluoro-1-oxoisoindolin-2-yl)-N-(thiazol-2-yl)acetamide] | < 50 |
| Cn1nc(N2CCC(=O)NC2=O)c2ccc(C3CCN(CC(=O)N4CC5(CCN(c6ccc(-c7cc(F)c8c(c7)C(=O)N(C(C(=O)Nc7nccs7)c7ncn9c7CCC9)C8)cc6)CC5)C4)CC3(F)F)cc21 (stereo not drawn) [Compound 106, 2-(6,7-dihydro-5H-pyrrolo[1,2-c]imidazol-1-yl)-2-(6-(4-(2-(2-(4-(3-(2,4-dioxotetrahydropyrimidin-1(2H)-yl)-1-methyl-1H-indazol-6-yl)-3,3-difluoropiperidin-1-yl)acetyl)-2,7-diazaspiro[3.5]nonan-7-yl)phenyl)-4-fluoro-1-oxoisoindolin-2-yl)-N-(thiazol-2-yl)acetamide] | < 50 |
| O=C1CCC(Nc2ccc(N3CCC(O)(CC(=O)N4CC5(CCN(c6ccc(-c7cc(F)c8c(c7)C(=O)N(C(C(=O)Nc7nccs7)c7ncn9c7CCC9)C8)cc6)CC5)C4)CC3)c(F)c2)C(=O)N1 (stereo not drawn) [Compound 107, 2-(6,7-dihydro-5H-pyrrolo[1,2-c]imidazol-1-yl)-2-(6-(4-(2-(2-(1-(4-((2,6-dioxopiperidin-3-yl)amino)-2-fluorophenyl)-4-hydroxypiperidin-4-yl)acetyl)-2,7-diazaspiro[3.5]nonan-7-yl)phenyl)-4-fluoro-1-oxoisoindolin-2-yl)-N-(thiazol-2-yl)acetamide] | < 50 |
| O=C1CC[C@@H](Nc2ccc(N3CCC(O)(CC(=O)N4CCC(NC(=O)c5ccc(C#Cc6cc(F)c7c(c6)C(=O)N(C(C(=O)Nc6nccs6)c6ncn8c6C[C@@H](F)C8)C7)cn5)CC4)CC3)c(F)c2)C(=O)N1 (stereo partly drawn) [Compound 108, N-(1-(2-(1-(4-(((R)-2,6-dioxopiperidin-3-yl)amino)-2-fluorophenyl)-4-hydroxypiperidin-4-yl)acetyl)piperidin-4-yl)-5-((7-fluoro-2-(1-((R)-6-fluoro-6,7-dihydro-5H-pyrrolo[1,2-c]imidazol-1-yl)-2-oxo-2-(thiazol-2-ylamino)ethyl)-3-oxoisoindolin-5-yl)ethynyl)picolinamide] | < 50 |
| Cn1nc(N2CCC(=O)NC2=O)c2ccc(N3CCC(O)(CC(=O)N4CC5(C4)CN(c4ccc(-c6cc(F)c7c(c6)C(=O)N(C(C(=O)Nc6nccs6)c6ncn8c6CCC8)C7)cc4)C5)CC3)cc21 (stereo not drawn) [Compound 109, 2-(6,7-dihydro-5H-pyrrolo[1,2-c]imidazol-1-yl)-2-(6-(4-(6-(2-(1-(3-(2,4-dioxotetrahydropyrimidin-1(2H)-yl)-1-methyl-1H-indazol-6-yl)-4-hydroxypiperidin-4-yl)acetyl)-2,6-diazaspiro[3.3]heptan-2-yl)phenyl)-4-fluoro-1-oxoisoindolin-2-yl)-N-(thiazol-2-yl)acetamide] | < 50 |
| O=C1CC[C@H](Nc2ccc(N3CCC(O)(CC(=O)N4CC5(C4)CN(c4ccc(-c6cc(F)c7c(c6)C(=O)N(C(C(=O)Nc6nccs6)c6ncn8c6CCC8)C7)cn4)C5)CC3)c(F)c2)C(=O)N1 (stereo partly drawn) [Compound 110, 2-(6,7-dihydro-5H-pyrrolo[1,2-c]imidazol-1-yl)-2-(6-(6-(6-(2-(1-(4-(((S)-2,6-dioxopiperidin-3-yl)amino)-2-fluorophenyl)-4-hydroxypiperidin-4-yl)acetyl)-2,6-diazaspiro[3.3]heptan-2-yl)pyridin-3-yl)-4-fluoro-1-oxoisoindolin-2-yl)-N-(thiazol-2-yl)acetamide] | < 50 |
| O=C1CC[C@@H](Nc2ccc(N3CCC(O)(CC(=O)N4CC5(C4)CN(c4ccc(-c6cc(F)c7c(c6)C(=O)N(C(C(=O)Nc6nccs6)c6ncn8c6CCC8)C7)cn4)C5)CC3)c(F)c2)C(=O)N1 (stereo partly drawn) [Compound 111, 2-(6,7-dihydro-5H-pyrrolo[1,2-c]imidazol-1-yl)-2-(6-(6-(6-(2-(1-(4-(((R)-2,6-dioxopiperidin-3-yl)amino)-2-fluorophenyl)-4-hydroxypiperidin-4-yl)acetyl)-2,6-diazaspiro[3.3]heptan-2-yl)pyridin-3-yl)-4-fluoro-1-oxoisoindolin-2-yl)-N-(thiazol-2-yl)acetamide] | < 50 |
| O=C1CCC(Nc2cnc(C3CCN(CC(=O)N4CC5(C4)CN(c4ccc(-c6cc(F)c7c(c6)C(=O)N(C(C(=O)Nc6nccs6)c6ncn8c6CCC8)C7)cc4)C5)CC3)c(F)c2)C(=O)N1 (stereo not drawn) [Compound 112, 2-(6,7-dihydro-5H-pyrrolo[1,2-c]imidazol-1-yl)-2-(6-(4-(6-(2-(4-(5-((2,6-dioxopiperidin-3-yl)amino)-3-fluoropyridin-2-yl)piperidin-1-yl)acetyl)-2,6-diazaspiro[3.3]heptan-2-yl)phenyl)-4-fluoro-1-oxoisoindolin-2-yl)-N-(thiazol-2-yl)acetamide] | < 50 |
| Cn1nc(N2CCC(=O)NC2=O)c2ccc(C3CCN(CC(=O)N4CCC5(C4)CN(c4ccc(-c6cc(F)c7c(c6)C(=O)N(C(C(=O)Nc6nccs6)c6ncn8c6CCC8)C7)cc4)C5)CC3(F)F)cc21 (stereo not drawn) [Compound 113, 2-(6,7-dihydro-5H-pyrrolo[1,2-c]imidazol-1-yl)-2-(6-(4-(6-(2-(4-(3-(2,4-dioxotetrahydropyrimidin-1(2H)-yl)-1-methyl-1H-indazol-6-yl)-3,3-difluoropiperidin-1-yl)acetyl)-2,6-diazaspiro[3.4]octan-2-yl)phenyl)-4-fluoro-1-oxoisoindolin-2-yl)-N-(thiazol-2-yl)acetamide] | < 50 |
| O=C1CCC(Nc2ccc(N3CCC(O)(CC(=O)N4CCC5(CC4)CN(c4ccc(-c6cc(F)c7c(c6)C(=O)N(C(C(=O)Nc6nccs6)c6ncn8c6CCC8)C7)cc4)C5)CC3)c(F)c2)C(=O)N1 (stereo not drawn) [Compound 114, 2-(6,7-dihydro-5H-pyrrolo[1,2-c]imidazol-1-yl)-2-[6-[4-[7-[2-[1-[4-[(2,6-dioxo-3-piperidyl)amino]-2-fluoro-phenyl]-4-hydroxy-4-piperidyl]acetyl]-2,7-diazaspiro[3.5]nonan-2-yl]phenyl]-4-fluoro-1-oxo-isoindolin-2-yl]-N-thiazol-2-yl-acetamide] | < 50 |
| O=C1CCC(Nc2ccc(N3CCC(O)(CC(=O)N4CCC5(C4)CN(c4ccc(-c6cc(F)c7c(c6)C(=O)N(C(C(=O)Nc6nccs6)c6ncn8c6CCC8)C7)cc4)C5)CC3)c(F)c2)C(=O)N1 (stereo not drawn) [Compound 115, 2-(6,7-dihydro-5H-pyrrolo[1,2-c]imidazol-1-yl)-2-[6-[4-[7-[2-[1-[4-[(2,6-dioxo-3-piperidyl)amino]-2-fluoro-phenyl]-4-hydroxy-4-piperidyl]acetyl]-2,7-diazaspiro[3.4]octan-2-yl]phenyl]-4-fluoro-1-oxo-isoindolin-2-yl]-N-thiazol-2-yl-acetamide] | < 50 |
| Cn1nc(N2CCC(=O)NC2=O)c2ccc(C3CCN(CC(=O)N4CC5(C4)CN(c4ccc(-c6cc(F)c7c(c6)C(=O)N(C(C(=O)Nc6nccs6)c6ncn8c6C[C@@H](F)C8)C7)cc4)C5)CC3(F)F)cc21 (stereo partly drawn) [Compound 116, 2-[6-[4-[2-[2-[4-[3-(2,4-dioxohexahydropyrimidin-1-yl)-1-methyl-indazol-6-yl]-3,3-difluoro-1-piperidyl]acetyl]-2,6-diazaspiro[3.3]heptan-6-yl]phenyl]-4-fluoro-1-oxo-isoindolin-2-yl]-2-[(6R)-6-fluoro-6,7-dihydro-5H-pyrrolo[1,2-c]imidazol-1-yl]-N-thiazol-2-yl-acetamide] | < 50 |
| O=C1CCC(Nc2ccc(N3CCC(O)(CC(=O)N4CC5(C4)CN(c4ccc(-c6cc(F)c7c(c6)C(=O)N(C(C(=O)Nc6nccs6)c6ncn8c6CCC8)C7)cc4)C5)CC3)c(Cl)c2)C(=O)N1 (stereo not drawn) [Compound 117, 2-[6-[4-[2-[2-[1-[2-chloro-4-[(2,6-dioxo-3-piperidyl)amino]phenyl]-4-hydroxy-4-piperidyl]acetyl]-2,6-diazaspiro[3.3]heptan-6-yl]phenyl]-4-fluoro-1-oxo-isoindolin-2-yl]-2-(6,7-dihydro-5H-pyrrolo[1,2-c]imidazol-1-yl)-N-thiazol-2-yl-acetamide] | < 50 |
| Cn1nc(N2CCC(=O)NC2=O)c2ccc(C3CCN(C(=O)CN4CC5(C4)CN(c4ccc(-c6cc(F)c7c(c6)C(=O)N(C(C(=O)Nc6nccs6)c6ncn8c6CCC8)C7)cn4)C5)CC3(F)F)cc21 (stereo not drawn) [Compound 118, 2-(6,7-dihydro-5H-pyrrolo[1,2-c]imidazol-1-yl)-2-(6-(6-(6-(2-(4-(3-(2,4-dioxotetrahydropyrimidin-1(2H)-yl)-1-methyl-1H-indazol-6-yl)-3,3-difluoropiperidin-1-yl)-2-oxoethyl)-2,6-diazaspiro[3.3]heptan-2-yl)pyridin-3-yl)-4-fluoro-1-oxoisoindolin-2-yl)-N-(thiazol-2-yl)acetamide] | < 50 |

Source: patent publication US20240158418A1 (C4 Therapeutics, Inc., priority 2021, published 2024)
